Assay results: patent publication US20220409620A1, “REDUCING IMMUNOGENICITY TO PEGLOTICASE” (Horizon Pharma Rheumatology LLC, priority 2016, published 2022)

System: adult patients with uncontrolled gout
Assay: Serum uric acid (sUA) levels and sUA responder rate, open-label study of pegloticase with MTX (MIRROR OL)
Format: in vivo, human
Description: The primary objective is to estimate the response rate during Month 6 (Weeks 20, 22, and 24), as measured by the sustained normalization of serum uric acid (SUA) to <6 mg/dL for at least 80% of the time during Month 6 in subjects receiving KXX with MTX.
The primary efficacy outcome endpoint is the sustained normalization of SUA to <6 mg/dL for at least 80% of the time during month 6 (weeks 20, 22, and 24) in subjects receiving KXX with MTX. […] Participants who achieve this endpoint were classified as “responders.” Serum uric acid (SUA) responders may also be defined as participants achieving and maintaining SUA <6 mg/dL for at least 80% of the time during Month 6 (Weeks 20, 22, and 24).
Blood samples may be collected prior to each pegloticase infusion for measurement of SUA levels using the Beckman Coulter AU System Uric Acid procedure. Participants were declared “non-responders” if there were SUA measures >6 mg/dL at 2 consecutive study visits beginning with the week 2 visit. […] This assumption and subsequent discontinuation of pegloticase was consistent with the protocol of large phase III randomized controlled trials and the product label. A formal stopping rule was 2 occasions of SUA levels of greater than 6 mg/dL.
Clinical Chemistry—Blood samples were collected prior to each pegloticase infusion for measurement of SUA levels (primary efficacy parameter) using the Beckman Coulter AU System Uric Acid procedure. In this procedure uric acid is converted to hydrogen peroxide. Hydrogen peroxide reacts with reagent to produce a chromophore which is read bichromatically at 660/800 nm. The amount of dye formed is proportional to the uric acid concentration in the sample.
Serum samples for measurement of SUA levels were collected at the Screening Visit, the Week −4 Visit (prior to the first dose of MTX), and the Week −2 Visit during the MTX Run-in Period; within 48 hours prior to each pegloticase infusion and after the end of each pegloticase infusion prior to discharge from the site during the Pegloticase+IMM Period; at the non-infusion Week 52/End of Study/Early Termination Visits and at the Post Treatment 3 and 6 Month Follow-up Visits. Additional serum samples for SUA levels were collected at optional non-infusion (Frequent Sampling) Visits at Weeks 1 and 7. […] Subjects with SUA level >6 mg/dL at 2 consecutive visits beginning at Week 2 visit discontinued treatment, completed the End of Pegloticase Infusion Visit procedures within 2 weeks and continued the subject visits according to the protocol (without treatment).
Efficacy analyses were performed using the modified intention-to-treat (mITT) population, defined as all enrolled subjects who received ≥1 dose of pegloticase. The proportion of Month 6 responders was summarized, along with a 95% confidence interval for the proportion. The proportion of Month 3 and overall (Months 3 and 6 combined) responders was analyzed similarly.
A subject was declared a non-responder if the subject had SUA level >6 mg/dL at 2 consecutive study visits beginning with the Week 2 Visit. In addition, a subject who withdraws from study treatment for any reason after the first dose of pegloticase in the KXX+MTX Period and prior to Month 6 (for the primary endpoint) or Month 3 (for the secondary endpoint) was considered a non-responder if SUA values were not collected at the planned time points.
Patients were administered oral MTX (15 mg/week) and folate (1 mg/day) 4 weeks prior to the first pegloticase infusion (Day 1) and throughout the pegloticase treatment period. Blood was drawn prior to each infusion to measure sUA level, monitor clinical parameters, and examine for ADA development. All patients followed typical IR prophylaxis protocols (fexofenadine one day before and the morning of each infusion and acetaminophen and IV corticosteroid the morning of each infusion).

[1] = Month 6 sUA Responders, Week 48-Post-Infusion, n=3
[2] = Month 6 sUA Responders, Week 48-Pre-Infusion, n=2
[3] = Month 6 sUA Responders, Week 50-Post-Infusion, n=3
[4] = Month 6 sUA Responders, Week 50-Pre-Infusion, n=2
[5] = Month 6 sUA Responders, Week 52/ET, n=2
[6] = Week 2 - Post-Infusion, mITT Population
[7] = Week 2 - Pre-Infusion, mITT Population
[8] = Week 4 - Post-Infusion, mITT Population
[9] = Week 4 - Pre-Infusion, mITT Population
[10] = Week 6 - Post-Infusion, mITT Population
[11] = Week 6 - Pre-Infusion, mITT Population
[12] = Week 8 - Post-Infusion, mITT Population
[13] = Week 8 - Pre-Infusion, mITT Population
[14] = Week 10 - Post-Infusion, mITT Population
[15] = Week 10 - Pre-Infusion, mITT Population
[16] = Week 12 - Post-Infusion, mITT Population
[17] = Week 12 - Pre-Infusion, mITT Population
[18] = Week 14 - Post-Infusion, mITT Population
[19] = Week 14 - Pre-Infusion, mITT Population
[20] = Week 16 - Post-Infusion, mITT Population
[21] = Week 16 - Pre-Infusion, mITT Population
[22] = Week 18 - Post-Infusion, mITT Population
[23] = Week 18 - Pre-Infusion, mITT Population

## pegloticase
[1]
  Serum Uric Acid, Change from Baseline, Mean (SD): −10.33 (4.922) mg/dL
  Serum Uric Acid, Change from Baseline, Median: -9.80 mg/dL
  Serum Uric Acid, Observed, Mean (SD): 1.60 (2.252) mg/dL
  Serum Uric Acid, Observed, Median: 0.30 mg/dL
  sUA <6 mg/dL, n (%): 3 (100%)
[2]
  Serum Uric Acid, Change from Baseline, Mean (SD): −12.65 (4.031) mg/dL
  Serum Uric Acid, Change from Baseline, Median: -12.65 mg/dL
  Serum Uric Acid, Observed, Mean (SD): 0.30 (0.000) mg/dL
  Serum Uric Acid, Observed, Median: 0.30 mg/dL
  sUA <6 mg/dL, n (%): 2 (100%)
[3]
  Serum Uric Acid, Change from Baseline, Mean (SD): −10.57 (4.598) mg/dL
  Serum Uric Acid, Change from Baseline, Median: -9.80 mg/dL
  Serum Uric Acid, Observed, Mean (SD): 1.37 (1.848) mg/dL
  Serum Uric Acid, Observed, Median: 0.30 mg/dL
  sUA <6 mg/dL, n (%): 3 (100%)
[4]
  Serum Uric Acid, Change from Baseline, Mean (SD): −12.65 (4.031) mg/dL
  Serum Uric Acid, Change from Baseline, Median: -12.65 mg/dL
  Serum Uric Acid, Observed, Mean (SD): 0.30 (0.000) mg/dL
  Serum Uric Acid, Observed, Median: 0.30 mg/dL
  sUA <6 mg/dL, n (%): 2 (100%)
[5]
  Serum Uric Acid, Change from Baseline, Mean (SD): −12.65 (4.031) mg/dL
  Serum Uric Acid, Change from Baseline, Median: -12.65 mg/dL
  Serum Uric Acid, Observed, Mean (SD): 0.30 (0.000) mg/dL
  Serum Uric Acid, Observed, Median: 0.30 mg/dL
  sUA <6 mg/dL, n (%): 2 (100%)
Week 1, mITT Population
  Serum Uric Acid, Change from Baseline, Mean (SD): −7.28 (1.556) mg/dL
  Serum Uric Acid, Change from Baseline, Median: -7.75 mg/dL
  Serum Uric Acid, Observed, Mean (SD): 0.30 (0.000) mg/dL
  Serum Uric Acid, Observed, Median: 0.30 mg/dL
  sUA <6 mg/dL, n (%): 6 (100%)
[6]
  Serum Uric Acid, Change from Baseline, Mean (SD): −8.86 (2.486) mg/dL
  Serum Uric Acid, Change from Baseline, Median: -8.70 mg/dL
  Serum Uric Acid, Observed, Mean (SD): 0.30 (0.000) mg/dL
  Serum Uric Acid, Observed, Median: 0.30 mg/dL
  sUA <6 mg/dL, n (%): 14 (100%)
[7]
  Serum Uric Acid, Change from Baseline, Mean (SD): −7.90 (2.878) mg/dL
  Serum Uric Acid, Change from Baseline, Median: -8.70 mg/dL
  Serum Uric Acid, Observed, Mean (SD): 1.26 (2.163) mg/dL
  Serum Uric Acid, Observed, Median: 0.30 mg/dL
  sUA <6 mg/dL, n (%): 13 (92.9%)
[8]
  Serum Uric Acid, Change from Baseline, Mean (SD): −8.92 (2.577) mg/dL
  Serum Uric Acid, Change from Baseline, Median: -8.80 mg/dL
  Serum Uric Acid, Observed, Mean (SD): 0.30 (0.000) mg/dL
  Serum Uric Acid, Observed, Median: 0.30 mg/dL
  sUA <6 mg/dL, n (%): 13 (100%)
[9]
  Serum Uric Acid, Change from Baseline, Mean (SD): −7.54 (3.768) mg/dL
  Serum Uric Acid, Change from Baseline, Median: -8.00 mg/dL
  Serum Uric Acid, Observed, Mean (SD): 1.61 (2.637) mg/dL
  Serum Uric Acid, Observed, Median: 0.30 mg/dL
  sUA <6 mg/dL, n (%): 12 (85.7%)
[10]
  Serum Uric Acid, Change from Baseline, Mean (SD): −8.98 (2.679) mg/dL
  Serum Uric Acid, Change from Baseline, Median: -8.95 mg/dL
  Serum Uric Acid, Observed, Mean (SD): 0.30 (0.000) mg/dL
  Serum Uric Acid, Observed, Median: 0.30 mg/dL
  sUA <6 mg/dL, n (%): 12 (100%)
[11]
  Serum Uric Acid, Change from Baseline, Mean (SD): −8.31 (3.538) mg/dL
  Serum Uric Acid, Change from Baseline, Median: -8.80 mg/dL
  Serum Uric Acid, Observed, Mean (SD): 0.91 (2.191) mg/dL
  Serum Uric Acid, Observed, Median: 0.30 mg/dL
  sUA <6 mg/dL, n (%): 12 (92.3%)
Week 7, mITT Population
  Serum Uric Acid, Change from Baseline, Mean (SD): −8.90 (4.755) mg/dL
  Serum Uric Acid, Change from Baseline, Median: -7.85 mg/dL
  Serum Uric Acid, Observed, Mean (SD): 0.30 (0.000) mg/dL
  Serum Uric Acid, Observed, Median: 0.30 mg/dL
  sUA <6 mg/dL, n (%): 4 (100%)
[12]
  Serum Uric Acid, Change from Baseline, Mean (SD): −8.98 (2.679) mg/dL
  Serum Uric Acid, Change from Baseline, Median: -8.95 mg/dL
  Serum Uric Acid, Observed, Mean (SD): 0.30 (0.000) mg/dL
  Serum Uric Acid, Observed, Median: 0.30 mg/dL
  sUA <6 mg/dL, n (%): 12 (100%)
[13]
  Serum Uric Acid, Change from Baseline, Mean (SD): −8.20 (3.624) mg/dL
  Serum Uric Acid, Change from Baseline, Median: -8.33 mg/dL
  Serum Uric Acid, Observed, Mean (SD): 1.08 (2.472) mg/dL
  Serum Uric Acid, Observed, Median: 0.30 mg/dL
  sUA <6 mg/dL, n (%): 11 (91.7%)
[14]
  Serum Uric Acid, Change from Baseline, Mean (SD): −8.97 (2.810) mg/dL
  Serum Uric Acid, Change from Baseline, Median: -8.80 mg/dL
  Serum Uric Acid, Observed, Mean (SD): 0.30 (0.000) mg/dL
  Serum Uric Acid, Observed, Median: 0.30 mg/dL
  sUA <6 mg/dL, n (%): 11 (100%)
[15]
  Serum Uric Acid, Change from Baseline, Mean (SD): −8.33 (3.476) mg/dL
  Serum Uric Acid, Change from Baseline, Median: -8.70 mg/dL
  Serum Uric Acid, Observed, Mean (SD): 0.95 (2.252) mg/dL
  Serum Uric Acid, Observed, Median: 0.30 mg/dL
  sUA <6 mg/dL, n (%): 11 (91.7%)
[16]
  Serum Uric Acid, Change from Baseline, Mean (SD): −9.13 (2.911) mg/dL
  Serum Uric Acid, Change from Baseline, Median: -9.05 mg/dL
  Serum Uric Acid, Observed, Mean (SD): 0.30 (0.000) mg/dL
  Serum Uric Acid, Observed, Median: 0.30 mg/dL
  sUA <6 mg/dL, n (%): 10 (100%)
[17]
  Serum Uric Acid, Change from Baseline, Mean (SD): −8.98 (2.806) mg/dL
  Serum Uric Acid, Change from Baseline, Median: -8.80 mg/dL
  Serum Uric Acid, Observed, Mean (SD): 0.30 (0.015) mg/dL
  Serum Uric Acid, Observed, Median: 0.30 mg/dL
  sUA <6 mg/dL, n (%): 11 (100%)
[18]
  Serum Uric Acid, Change from Baseline, Mean (SD): −9.01 (2.959) mg/dL
  Serum Uric Acid, Change from Baseline, Median: -9.05 mg/dL
  Serum Uric Acid, Observed, Mean (SD): 0.30 (0.000) mg/dL
  Serum Uric Acid, Observed, Median: 0.30 mg/dL
  sUA <6 mg/dL, n (%): 10 (100%)
[19]
  Serum Uric Acid, Change from Baseline, Mean (SD): −8.97 (2.810) mg/dL
  Serum Uric Acid, Change from Baseline, Median: -8.80 mg/dL
  Serum Uric Acid, Observed, Mean (SD): 0.30 (0.000) mg/dL
  Serum Uric Acid, Observed, Median: 0.30 mg/dL
  sUA <6 mg/dL, n (%): 11 (100%)
[20]
  Serum Uric Acid, Change from Baseline, Mean (SD): −8.97 (2.810) mg/dL
  Serum Uric Acid, Change from Baseline, Median: -8.80 mg/dL
  Serum Uric Acid, Observed, Mean (SD): 0.30 (0.000) mg/dL
  Serum Uric Acid, Observed, Median: 0.30 mg/dL
  sUA <6 mg/dL, n (%): 11 (100%)
[21]
  Serum Uric Acid, Change from Baseline, Mean (SD): −8.97 (2.810) mg/dL
  Serum Uric Acid, Change from Baseline, Median: -8.80 mg/dL
  Serum Uric Acid, Observed, Mean (SD): 0.30 (0.000) mg/dL
  Serum Uric Acid, Observed, Median: 0.30 mg/dL
  sUA <6 mg/dL, n (%): 11 (100%)
[22]
  Serum Uric Acid, Change from Baseline, Mean (SD): −8.97 (2.810) mg/dL
  Serum Uric Acid, Change from Baseline, Median: -8.80 mg/dL
  Serum Uric Acid, Observed, Mean (SD): 0.30 (0.000) mg/dL
  Serum Uric Acid, Observed, Median: 0.30 mg/dL
  sUA <6 mg/dL, n (%): 11 (100%)
[23]
  Serum Uric Acid, Change from Baseline, Mean (SD): −8.97 (2.810) mg/dL
  Serum Uric Acid, Change from Baseline, Median: -8.80 mg/dL
  Serum Uric Acid, Observed, Mean (SD): 0.30 (0.000) mg/dL
  Serum Uric Acid, Observed, Median: 0.30 mg/dL
  sUA <6 mg/dL, n (%): 11 (100%)
